Source: patent US20240360148A1 (SUVALENT THERAPEUTICS, INC., priority 2021, published 2024)
Values after ≈ are worked out from the molar mass of the structure shown. Read-outs that look alike come from different tables or passages of the source.

Assays:
[1] = system: sumoylation levels (SUMO 2/3 conjugates) in HCT-116 cells; test: HCT-116 4 Hour Cell Assay (Western, SUMO 2/3 conjugates); type: cell-based; settings: Homo sapiens, HCT-116, 4 h, 4 h treatment, Anti-Sumo 2-3 immunoblot, read-out: HCT-116 Western 4 h IC50 (μM) Ave
In short: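 Cells treated 4 h with 11 three-fold dilutions from 25 μM; lysed in RIPA with NEM and Benzonase. Non-reducing SDS-PAGE immunoblot with anti-SUMO 2/3 mAb, IRDye fluorescent detection; conjugate signal normalized to total protein stain, IC50 from quantified bands.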

[2] = Plasma protein binding, equilibrium dialysis, human plasma; type: in vitro ADME; settings: 5 hours at 37° C., read-out: PPB % bound Human (converted)
Protocol: (§1) The compounds of interest were evaluated for various PK parameters. Specifically CACO permeability/efflux and plasma protein binding (PPP) were determined. Stock solutions were prepared at 10 mM in DMSO for test and reference compounds. Aliquots of the stock solution were diluted to 500× of final concentration (0.5 mM) with DMSO, then further diluted upon the addition of bank PE3-buffer to 20× of final concentration (20 μM). Then test and reference compounds were prepared in plasma at 1 μM. For 0 hour incubation: 25 μL of the plasma spiked with test and reference compounds was transferred into a 96-well sample preparation plate, and then 25 μL blank PB-buffer was added. The samples were quenched by 200 μL of IS solution to prepare [Initial]0h samples. For 5 hours incubation: 100 μL of the plasma spiking with test and reference compounds was loaded on donor side, and 100 μL of blank PB-buffer were loaded on receiver side of the equilibrium dialysis device. Samples were incubated in an air-bath shaker (60 rpm) for 5 hours at 37° C. After 5 hours incubation, 25 μL of samples (from both the donor sides and receiver sides of the dialysis apparatus) was aspirated and added into new sample preparation plates, separately. 25 μL of blank PB-buffer was added to donor side samples and 25 μL of blank plasma was added to receiver side samples to balance the matrix. The samples were quenched with 200 μL of IS solution. The assay plate was shaken at the vibrator (Hangzhou Allsheng, MX100-4A) for 10 min (600 rpm) and then centrifuged at 5,594×g for 15 min (Thermo Multifuge×3R). An aliquot of the 50 μL supernatant was taken from each well and diluted by 50 μL distilled water, then analyzed by UPLC-MS/MS.

[3] = biological target: SAE1 (Homo sapiens (Human), UniProt Q9UBE0+Q9UBT2); test: SAE High Throughput Biochemical Assay (HTRF), 15 min preincubation; settings: read-out: 15 min preincubation HTRF IC50 (μM) Ave, SAE1 12.5 nM, ATP 100 μM
Sequence of SAE1 (Homo sapiens (Human), UniProt Q9UBE0+Q9UBT2) (Q9UBE0 whole entry): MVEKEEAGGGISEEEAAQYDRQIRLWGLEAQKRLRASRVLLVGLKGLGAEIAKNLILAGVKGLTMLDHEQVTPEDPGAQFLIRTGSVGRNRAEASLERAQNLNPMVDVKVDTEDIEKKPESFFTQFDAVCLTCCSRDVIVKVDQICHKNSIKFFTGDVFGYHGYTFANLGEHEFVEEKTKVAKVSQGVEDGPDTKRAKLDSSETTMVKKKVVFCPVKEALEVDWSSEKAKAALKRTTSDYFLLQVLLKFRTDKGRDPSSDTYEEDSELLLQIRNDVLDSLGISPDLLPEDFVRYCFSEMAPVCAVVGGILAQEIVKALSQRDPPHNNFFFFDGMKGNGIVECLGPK
Sequence of SAE1 (Homo sapiens (Human), UniProt Q9UBE0+Q9UBT2) (Q9UBT2 whole entry): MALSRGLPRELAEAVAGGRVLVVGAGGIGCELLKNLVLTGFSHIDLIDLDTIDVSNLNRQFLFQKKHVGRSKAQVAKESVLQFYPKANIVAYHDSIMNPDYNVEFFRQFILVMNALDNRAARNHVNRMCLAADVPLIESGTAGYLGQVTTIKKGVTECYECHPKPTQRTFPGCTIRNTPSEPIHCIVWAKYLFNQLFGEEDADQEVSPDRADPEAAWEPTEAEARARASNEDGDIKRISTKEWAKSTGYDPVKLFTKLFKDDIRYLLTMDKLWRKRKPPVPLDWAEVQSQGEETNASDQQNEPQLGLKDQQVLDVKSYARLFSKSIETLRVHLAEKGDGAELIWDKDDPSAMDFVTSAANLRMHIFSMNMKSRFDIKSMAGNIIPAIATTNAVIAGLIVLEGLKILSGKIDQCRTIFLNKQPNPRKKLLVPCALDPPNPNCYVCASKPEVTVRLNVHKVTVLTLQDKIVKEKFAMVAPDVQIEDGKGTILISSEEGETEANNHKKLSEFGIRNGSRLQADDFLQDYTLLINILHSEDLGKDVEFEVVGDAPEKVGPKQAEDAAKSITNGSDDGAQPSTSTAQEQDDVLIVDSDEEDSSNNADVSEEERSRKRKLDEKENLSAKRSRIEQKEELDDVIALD
In short: (§2)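 SAE1 (12.5 nM) was preincubated with compound for 15 min at RT in HEPES pH 7.5, 0.1% BSA, 10 mM MgCl2. The reaction was then started with SUMO-GST and UBC9-His (40 nM each) plus 100 μM ATP for 45 min. After KF stop, HTRF (anti-GST-XL665/anti-His-EuK) was read at 2 h and overnight; some compounds were tested singly at 25 micromolar as percent of control.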

[4] = Plasma protein binding, equilibrium dialysis, mouse plasma; type: in vitro ADME; settings: 5 hours at 37° C., read-out: PPB % bound Mouse (converted)
Protocol: as §1

[5] = system: Caco-2 cells; test: Caco-2 permeability/efflux; type: in vitro ADME; settings: 10 uM, 37° C., 90 min, pH 7.4
Protocol: Caco-2 cells were obtained from American Tissue Culture Collection (Rockville, MD). The cells were maintained in Modified Eagle's medium (MEM), containing 10% heat-inactivated fetal bovine serum (FBS), and 1% non-essential amino acids, in CO2 at 37° C. Cells were seeded on polycarbonate filter inserts (Millipore, CAT #PSHT 010 R5). The cells were cultured for 21-28 days prior to the permeability experiments. The Lucifer Yellow permeability was checked before and after the assay. Compounds were dissolved at 10 mM in 100% dimethyl sulfoxide (DMSO) and diluted for studies in Hanks Balanced Salt Solution (HBSS, Invitrogen, Cat #14025-092) with 25 mM HEPES, pH 7.4. Compounds were tested at 10 µM in both the apical-to-basolateral (A-B) and basolateral-to-apical (B-A) directions, incubations were conducted at 37° C. for 90 min. At the end of incubation, samples were diluted by assay buffer, and analyzed by LC-MS/MS. The concentrations of the compounds were quantified by standard curve. The first comparator example (Comp. Ex. 1) is the chloro substituted thienodihydropyridine

[6] = Solubility Evaluation; type: physicochemical; settings: kinetic from dmso stock, 1 hour at RT
Protocol: The compounds of interest were evaluated for their solubility in various biological solutions. Specifically, aliquots (8 μL) of reference and test compound stock solutions (10 mM) were added into 792 μL of buffer (PBS, pH7.4, FaSSIF, pH 6.5, or FaSSGF, pH 1.6) respectively (Final DMSO conc.: 1%). Sample tubes were shaken for 1 hour (1000 rpm) at RT. The experiment was calibrated using 300 μM spiked solution (SS) in MeOH/CAN (4:1) by adding 6 μL of 10 mM compound stock solution in 194 μL MeOH/ACN(4:1) ranging from 60 μM to 0.02 μM. The samples were centrifuged (10 min-12000 rpm) to precipitate un-dissolved particles. The supernatants were transferred to a new tube or plate. Supernatants were diluted 10 times and 100 times with 100 mM buffer then analyzed by LC-MS/MS. SGF=simulated gastric fluid, SIF=simulated intestinal fluid, PBS=phosphate buffered saline pH 7.4 Values are noted in μM.

[7] = biological target: SAE1 (Homo sapiens (Human), UniProt Q9UBT2); test: SAE High Throughput Biochemical Assay (HTRF), 15 min preincubation; settings: SAE1 12.5 nM, ATP 100 μM
Sequence of SAE1 (Homo sapiens (Human), UniProt Q9UBT2) (Q9UBE0 whole entry): as the sequence (Q9UBE0 whole entry) above
Sequence of SAE1 (Homo sapiens (Human), UniProt Q9UBT2) (Q9UBT2 whole entry): as the sequence (Q9UBT2 whole entry) above
In short: as §2

[8] = PBS (phosphate buffered saline), aqueous buffer, phosphate buffered saline pH 7.4, 1% DMSO, read-out: Solubilities PBS
[9] = simulated intestinal fluid (FaSSIF, pH 6.5), 1% DMSO, read-out: Solubilities SIF

CCn1cc(-c2c(F)cccc2[C@@H]2CN(C(=O)/C=C/[C@H](C)NC)Cc3sc(C#N)cc32)c(C(F)(F)F)n1 [Example 89, (S)-4-(2-(1-Ethyl-3-(trifluoromethyl)-1 H pyrazol-4-yl)-3-fluorophenyl)-6-((S, E)-4-(methylamino)pent-2-enoyl)-4,5,6,7-tetrahydrothieno[2,3-c]pyridine-2-carbonitrile]
IC50 [1]: 0.145 µM
fraction unbound at 5 h, 1 μM [2]: 0.029
IC50 [3]: 1.13 µM
fraction unbound at 5 h, 1 μM [4]: 0.024
Caco-2 apparent permeability (Papp) ([5]; apical-to-basolateral): 8 10^-6 cm/s
Caco-2 apparent permeability (Papp) ([5]; basolateral-to-apical): 11 10^-6 cm/s
solubility at 1 h [6, 8]: 78 µM (≈ 41.5 µg/mL)
solubility at 1 h [6, 9]: 90 µM (≈ 47.8 µg/mL)

CCn1cc(-c2ccccc2[C@@H]2CN(C(=O)/C=C/CNC3(C)CC3)Cc3sc(C#N)cc32)c(C(F)(F)F)n1 [Example 94, (S,E)-4-(2-(1-Ethyl-3-(trifluoromethyl)-1H pyrazol-4-yl)phenyl)-6-(4-((1-methylcyclopropyl)amino)but-2-enoyl)-4,5,6,7-tetrahydrothieno[2,3-c]pyridine-2-carbonitrile]
IC50 [1]: 1.16 µM
IC50 [7]: 1860 nM

CCn1cc(-c2ccccc2[C@@H]2CN(C(=O)/C=C/[C@H]3CCCN3C)Cc3sc(C#N)cc32)c(C(F)(F)F)n1 [Example 90, (S)-4-(2-(1-Ethyl-3-(trifluoromethyl)-1 H-pyrazol-4-yl)phenyl)-6-((E)-3-((R)-1-methylpyrrolidin-2-yl)acryloyl)-4,5,6,7-tetrahydrothieno[2,3-c]pyridine-2-carbonitrile]
IC50 [1]: 3.05 µM
IC50 [7]: 5680 nM

COc1cncnc1-n1cc(-c2ccccc2[C@@H]2CN(C(=O)/C=C/CN(C)C)Cc3sc(C#N)cc32)c(C(F)(F)F)n1 [Example 178, (S,E)-6-(4-(dimethylamino)but-2-enoyl)-4-(2-(1-(5-methoxypyrimidin-4-yl)-3-(trifluoromethyl)-1H pyrazol-4-yl)phenyl)-4,5,6,7-tetrahydrothieno[2,3-c]pyridine-2-carbonitrile]
IC50 [1]: 0.69 µM
IC50 [7]: 16700 nM

C=CC(=O)N1Cc2sc(Cl)cc2[C@H](c2ccccc2-c2cn(CC)nc2C(F)(F)F)C1 [Comp. Ex. 1, reference compound]
fraction unbound at 5 h, 1 μM [2]: 0.002
fraction unbound at 5 h, 1 μM [4]: < 0.001

CNC/C=C/C(=O)N1Cc2sc(C#N)c(C)c2[C@H](c2cccc(F)c2-c2cn(C)nc2C(F)(F)F)C1 [Example 216, (S,E)-4-(3-fluoro-2-(1-methyl-3-(trifluoromethyl)-1 H-pyrazol-4-yl)phenyl)-3-methyl-6-(4-(methylamino)but-2-enoyl)-4,5,6,7-tetrahydrothieno[2,3-c]pyridine-2-carbonitrile]
IC50 [1]: 0.1 µM
IC50 [7]: 180 nM

CCn1cc(-c2ccccc2C2CN(C(=O)/C=C/CN(C)C)Cc3sc(C#N)c(Cl)c32)c(C(F)(F)F)n1 (stereo not drawn) [Example 214, (E)-3-chloro-6-(4-(dimethylamino)but-2-enoyl)-4-(2-(1-ethyl-3-(trifluoromethyl)-1 H-pyrazol-4-yl)phenyl)-4,5,6,7-tetrahydrothieno[2,3-c]pyridine-2-carbonitrile]
IC50 [1]: 0.356 µM
IC50 [7]: 3970 nM

CCn1cc(-c2c(F)cccc2[C@@H]2CN(C(=O)/C=C/[C@@H]3CCCN3)Cc3sc(C#N)cc32)c(C(F)(F)F)n1 [Example 118, (S)-4-(2-(1-Ethyl-3-(trifluoromethyl)-1H-pyrazol-4-yl)-3-fluorophenyl)-6-((E)-3-((S)pyrrolidin-2-yl)acryloyl)-4,5,6,7-tetrahydrothieno[2,3-c]pyridine-2-carbonitrile]
IC50 [1]: 0.114 µM
fraction unbound at 5 h, 1 μM [2]: 0.032
IC50 [3]: 0.29 µM
fraction unbound at 5 h, 1 μM [4]: 0.014
Caco-2 apparent permeability (Papp) ([5]; apical-to-basolateral): 4 10^-6 cm/s
Caco-2 apparent permeability (Papp) ([5]; basolateral-to-apical): 21 10^-6 cm/s
solubility at 1 h [6, 8]: 57 µM (≈ 31 µg/mL)
solubility at 1 h [6, 9]: 70 µM (≈ 38.1 µg/mL)

CC(C)n1cc(-c2ccccc2[C@@H]2CN(C(=O)/C=C/CN(C)C)Cc3sc(C#N)cc32)c(C(F)(F)F)n1 [Example 175]
IC50 [1]: 0.321 µM
IC50 [7]: 3050 nM

C=CC(=O)N1Cc2sc(C#N)cc2[C@H](c2cccc(F)c2-c2cn(CC)nc2C(F)(F)F)C1 [Compound 227]
IC50 [1]: 0.057 µM
IC50 [3]: 0.12 µM
fraction unbound at 5 h, 1 μM [4]: 0.021

CCn1cc(-c2ccccc2[C@@H]2CN(C(=O)/C=C/COC)Cc3sc(C#N)cc32)c(C(F)(F)F)n1 [Example 7, (S, E)-4-(2-(1-Ethyl-3-(trifluoromethyl)-1 H-pyrazol-4-yl)phenyl)-6-(4-methoxybut-2-enoyl)-4,5,6,7-tetrahydrothieno[2,3-c]pyridine-2-carbonitrile]
IC50 [1]: 1.95 µM
IC50 [7]: 9310 nM

CCn1cc(-c2ccccc2[C@@H]2CN(C(=O)/C=C/C(C)N(C)C)Cc3sc(C#N)cc32)c(C(F)(F)F)n1 (stereo partly drawn) [Compound 235]
IC50 [1]: 0.285 µM
IC50 [7]: 4150 nM

CCn1cc(-c2c(F)cccc2[C@@H]2CN(C(=O)/C=C\CNC)Cc3sc(C#N)c(C)c32)c(C(F)(F)F)n1 [Compound 225]
IC50 [1]: 0.298 µM
IC50 [7]: 34 nM

CCn1cc(-c2c(F)cccc2[C@@H]2CN(C(=O)/C=C\CN(C)C)Cc3sc(C#N)c(C)c32)c(C(F)(F)F)n1 [Compound 223]
IC50 [1]: 0.0473 µM
IC50 [7]: 52 nM

CCn1cc(-c2ccccc2[C@@H]2CN(C(=O)/C=C/[C@@H](C)N)Cc3sc(C#N)cc32)c(C(F)(F)F)n1 [Example 47, (S)-6-((R, E)-4-aminopent-2-enoyl)-4-(2-(1-ethyl-3-(trifluoromethyl)-1 H-pyrazol-4-yl)phenyl)-4,5,6,7-tetrahydrothieno[2,3-c]pyridine-2-carbonitrile]
IC50 [1]: 2.72 µM
IC50 [7]: 3370 nM

CCn1cc(-c2ccccc2[C@@H]2CN(C(=O)/C=C/CN(C)C)Cc3sc(Cl)cc32)c(C(F)(F)F)n1 [Comp. Ex. 2, reference compound]
fraction unbound at 5 h, 1 μM [2]: 0.008
fraction unbound at 5 h, 1 μM [4]: < 0.003
